Measured values as given in PMC10310857 (Nature Communications, 2023).
Where “and” joins values, the source holds several entries; their conditions need not be identical. Equal entries are not always repeated. Entries after “also recorded” stand apart in the source; their conditions may differ.

Columns and labels:
[1] = tested on: V. dahliae; conditions: in vivo
[2] = tested on: GhMPK6; set-up: species or system Gossypium hirsutum cv. Lvmian; conditions: in vivo
[3] = tested on: GhRbohD; set-up: species or system Gossypium hirsutum cv. Lvmian; conditions: in vivo
[4] = tested on: F. graminearum; set-up: species or system F. graminearum strain Fg-1 on soybean; conditions: in vivo
[5] = tested on: F. oxysporum; set-up: species or system F. oxysporum strain Fo-2 on soybean; conditions: in vivo
[6] = tested on: R. solani; set-up: species or system R. solani strain RS-1 on soybean; conditions: in vivo
[7] = tested on: P. striiformis f. sp. tritici (strain CYR32); set-up: species or system P. striiformis f. sp. tritici on wheat; conditions: in vivo
[8] = tested on: V. dahliae strain V991; assay type: cell-based, Verticillium dahliae
[9] = tested on: F. graminearum strain Fg-1; assay type: cell-based
[10] = tested on: F. oxysporum strain Fo-2; assay type: cell-based
[11] = tested on: R. solani strain RS-1; assay type: cell-based
[12] = tested on: T. harzianum T27; assay type: cell-based, Trichoderma harzianum
[13] = biological target: BmCDA7 (Bombyx mori, UniProt H9JW44)
Text: Effect o f BHA o n the activity of BmCDA7 from the insect Bombyx
mori. Bars in all graphs represent mean values, whiskers represent mean ± SEM, and black

[14] = biological target: T1, VdPDA1 (Verticillium dahliae, UniProt G2X9U7); experiment: biochemical
Experimental: The enzymatic activity of recombinantly expressed proteins was assayed using a fluorogenic labeling method[29]. The reaction mixture consisted of 100 μL of 100 nM testing enzyme and 0.5 mM (GlcNAc)3 in a 50 mM Hepes (pH 7.5) buffer. After incubation for 10 min at 30 °C, free amine production was measured using fluorescamine labeling and quantified with a glucosamine standard. All measurements were carried out in triplicate.
The compounds were screened to identify the small molecules inhibiting VdPDA1 and Pst_13661 using a liquid-handling robot. The compounds were prepared in a 96-well plate containing one compound per well at 10 mM each in 100% DMSO (except for BHA, which was dissolved in ddH2O). The plates were first diluted to 5 mM. The compounds were screened at 100 μM in 2% DMSO in a final reaction volume of 100 μL, containing 100 nM enzyme and 0.5 mM (GlcNAc)3 in 50 mM Hepes (pH 7.5) buffer. Negative enzyme-free controls and positive controls with and without DMSO were prepared. The plates were incubated at 30 °C for 10 min. All measurements were carried out in triplicate.
For the determination of the inhibition constants Ki, three substrate (GlcNAc)3 concentrations (0.5, 0.2, and 0.1 mM) and varied inhibitor concentrations were used. The Ki values were determined using Dixon plots[56]. In Dixon plots, the value of lines intersection that converges above the x-axis is denoted as Ki. […]

[15] = biological target: Pst_13661 (Puccinia striiformis f. sp. tritici, UniProt A0A0L0V0Y3, T32S); assay type: biochemical
[16] = biological target: T1, VdPDA1; assay type: biochemical

Sequence of BmCDA7 (H9JW44 16-364): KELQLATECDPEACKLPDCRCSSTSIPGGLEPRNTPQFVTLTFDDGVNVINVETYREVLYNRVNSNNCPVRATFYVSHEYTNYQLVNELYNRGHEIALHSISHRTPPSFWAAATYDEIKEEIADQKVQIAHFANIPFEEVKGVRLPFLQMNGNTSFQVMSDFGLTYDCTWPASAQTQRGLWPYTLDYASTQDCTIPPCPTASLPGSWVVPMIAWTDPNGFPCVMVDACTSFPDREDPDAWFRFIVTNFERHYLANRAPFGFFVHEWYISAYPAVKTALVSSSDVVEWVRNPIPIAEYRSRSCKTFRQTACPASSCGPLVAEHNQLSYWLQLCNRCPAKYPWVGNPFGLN

`O=C(NO)c1ccccc1` [Compound 1, benzohydroxamic acid] was tested, and the “Fungal biomass on cotton plants” value [1] was “significantly reduced”, the “Fungal biomass on cotton plants (Fig. 3c) Mean” value [1] was 0.5294 and 0.2725 and the “Wilt symptoms of cotton plants” value [1] was “did not exhibit wilt symptoms”. For the same compound, the “GhMPK6 expression in cotton roots” value [2] was “upregulated”, the “GhRbohD expression in cotton roots” value [3] was “upregulated” and the “Fungal biomass of soybean hypocotyls” value [4] was “significantly reduced fungal biomass”. The “Lesions on soybean hypocotyls” value [4] was “fewer lesions”, the “Fungal biomass of soybean hypocotyls” value [5] was “significantly reduced fungal biomass” and the “Fungal biomass of soybean hypocotyls (Fig. 5h) Mean” value [5] was 0.6738 and 0.6606 and 0.4822. For the same compound, the “Lesions on soybean hypocotyls” value [5] was “fewer lesions”, the “Fungal biomass of soybean hypocotyls” value [6] was “significantly reduced fungal biomass” and the “Lesions on soybean hypocotyls” value [6] was “fewer lesions”. The “Disease indices after P. striiformis f. sp. tritici infection of wheat plants” value [7] was “greatly declined”, the “Colony morphology and hyphae growth of V. dahliae” value [8] was “not affected” and the “Fungal growth (Fig. S3b), Mean” value [8] was 3.65 and 3.60 and 3.58. For the same compound, the “Fungal growth (Fig. S3b), Mean” value [9] was 4.15 and 4.13 and 4.08, the “Growth and morphology of F. graminearum” value [9] was “normal morphology and developmental status; also recorded: does not affect the growth” and the “Fungal growth (Fig. S3b), Mean” value [10] was 2.98 and 2.90 and 2.95. The “Growth and morphology of F. oxysporum” value [10] was “normal morphology and developmental status; also recorded: does not affect the growth”, the “Fungal growth (Fig. S3b), Mean” value [11] was 3.03 and 3.13 and the “Growth and morphology of R. solani” value [11] was “normal morphology and developmental status; also recorded: does not affect the growth”. The “Fungal growth (Fig. S3b), Mean” value [12] was 3.65 and 3.63, the “Growth of Trichoderma harzianum” value [12] was “does not affect the growth” and the “Activity of BmCDA7 (Fig. S4), Mean” value [13] was 101.71 and 105.43. The “Inhibition of insect chitin deacetylases” value [13] was “could not inhibit” and the Ki [14] was 8.31 µM.

For `O=C(O)c1cccc(C(=O)O)n1` [DPA], the “Fig. S1c enzyme activity, Exp1” value [15] was 4.96, the “Fig. S1c enzyme activity, Exp2” value [15] was 8.16 and the “Fig. S1c enzyme activity, Exp3” value [15] was 14.56. The “Fig. S1c enzyme activity, Mean” value [15] was 9.23, the “Fig. S1d enzyme activity, Exp1” value [16] was 0.31 and the “Fig. S1d enzyme activity, Exp2” value [16] was -0.24. For the same compound, the “Fig. S1d enzyme activity, Exp3” value [16] was -0.41 and the “Fig. S1d enzyme activity, Mean” value [16] was -0.11.

For `[Ni+2]` [Ni2+], the “Fig. S1c enzyme activity, Exp1” value [15] was 49.78, the “Fig. S1c enzyme activity, Exp2” value [15] was 47.40 and the “Fig. S1c enzyme activity, Exp3” value [15] was 46.47. For the same compound, the “Fig. S1c enzyme activity, Mean” value [15] was 47.88, the “Fig. S1d enzyme activity, Exp1” value [16] was 36.44 and the “Fig. S1d enzyme activity, Exp2” value [16] was 38.96. The “Fig. S1d enzyme activity, Exp3” value [16] was 38.03 and the “Fig. S1d enzyme activity, Mean” value [16] was 37.81.

`[Zn+2]` [Zn2+] was tested, and the “Fig. S1c enzyme activity, Exp1” value [15] was 97.91, the “Fig. S1c enzyme activity, Exp2” value [15] was 92.55 and the “Fig. S1c enzyme activity, Exp3” value [15] was 105.61. For the same compound, the “Fig. S1c enzyme activity, Mean” value [15] was 98.69, the “Fig. S1d enzyme activity, Exp1” value [16] was 76.18 and the “Fig. S1d enzyme activity, Exp2” value [16] was 78.11. The “Fig. S1d enzyme activity, Exp3” value [16] was 78.27 and the “Fig. S1d enzyme activity, Mean” value [16] was 77.52.
